Counter-ions that a name gives are not always drawn. Like-named read-outs stand apart in the source and are kept apart here.
Assays:
[1] = molecular target: T1, cloned human 5-HT1A receptors (Homo sapiens, UniProt P08908); assay: 35S-GTPγS binding assay, antagonist activity at 5-HT1A receptors; format: biochemical; settings: reversal of the effects of the standard agonist 8-OHDPAT; for IC50: membranes with cloned human 5-HT1A receptors, read-out: 5-HT1A Function IC50
T1 construct: expressed in transfected cells
T1 sequence (P08908 1-422): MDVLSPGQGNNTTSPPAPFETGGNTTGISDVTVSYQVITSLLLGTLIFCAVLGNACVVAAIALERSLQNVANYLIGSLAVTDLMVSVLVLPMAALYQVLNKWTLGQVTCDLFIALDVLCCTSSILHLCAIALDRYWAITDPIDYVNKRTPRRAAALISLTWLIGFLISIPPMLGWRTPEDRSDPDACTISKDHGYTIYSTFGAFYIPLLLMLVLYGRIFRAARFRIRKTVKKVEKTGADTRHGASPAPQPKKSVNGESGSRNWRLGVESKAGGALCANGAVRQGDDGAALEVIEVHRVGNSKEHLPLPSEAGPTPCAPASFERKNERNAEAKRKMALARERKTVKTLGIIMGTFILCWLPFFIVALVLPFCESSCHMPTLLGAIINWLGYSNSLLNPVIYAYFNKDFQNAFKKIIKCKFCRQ
Method: Antagonist activity at 5-HT1A receptors was established by using a ^35S-GTPγS binding assay similar to that used by Lazareno and Birdsall (Br. J. Pharmacol. 109: 1120, 1993), in which the test compound's ability to affect the binding of ^35S-GTPγS to membranes containing cloned human 5-HT1A receptors was determined. Agonists produce an increase in binding whereas antagonists produce no increase but rather reverse the effects of the standard agonist 8-OHDPAT. The test compound's maximum inhibitory effect is represented as the Imax, while its potency is defined by the IC50.

[2] = molecular target: T2, human 5-HT1A receptors (Homo sapiens, UniProt P08908); assay: [3H] 8-OHDPAT displacement from the 5-HT1A receptor (transfected CHO cells); format: binding
T2 construct: expressed in transfected cells; host or cells: CHO cells, stably transfected
T2 sequence (P08908 1-422): T1 sequence (P08908 1-422)
Source text: High affinity for the serotonin 5-HT1A receptor was established by testing the claimed compound's ability to displace [^3H] 8-OHDPAT (dipropylaminotetralin) from the 5-HT1A serotonin receptor following a modification of the procedure of Hall et al., J. Neurochem. 44, 1685 (1985) which utilizes CHO cells stably transfected with human 5-HT1A receptors.

[3] = molecular target: T3, serotonin transporter (Rattus norvegicus, UniProt P31652); assay: 3H-paroxetine displacement, affinity for the serotonin transporter; format: binding
T3 construct: displace ^3H-paroxetine from male rat frontal cortical membranes; from tissue; host or cells: male rat frontal cortex membranes
T3 sequence (P31652 whole entry): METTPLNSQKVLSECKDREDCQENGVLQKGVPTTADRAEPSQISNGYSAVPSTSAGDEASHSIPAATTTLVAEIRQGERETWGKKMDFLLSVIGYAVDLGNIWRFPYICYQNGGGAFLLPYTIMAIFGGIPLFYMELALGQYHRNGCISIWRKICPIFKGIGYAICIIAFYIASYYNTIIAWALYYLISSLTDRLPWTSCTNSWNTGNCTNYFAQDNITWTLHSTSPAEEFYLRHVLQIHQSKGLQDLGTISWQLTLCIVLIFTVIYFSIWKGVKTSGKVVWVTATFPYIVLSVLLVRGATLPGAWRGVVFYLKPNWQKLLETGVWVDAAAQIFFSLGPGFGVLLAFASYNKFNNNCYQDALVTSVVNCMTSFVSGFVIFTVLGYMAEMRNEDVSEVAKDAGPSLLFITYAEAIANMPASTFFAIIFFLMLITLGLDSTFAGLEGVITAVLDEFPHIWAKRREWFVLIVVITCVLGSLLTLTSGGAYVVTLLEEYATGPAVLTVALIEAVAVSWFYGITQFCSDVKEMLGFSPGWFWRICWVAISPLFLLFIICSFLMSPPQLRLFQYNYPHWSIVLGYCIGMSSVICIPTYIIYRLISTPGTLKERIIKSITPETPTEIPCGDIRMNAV

[4] = displacement of [3H] 8-OHDPAT, CHO cells stably transfected with human 5-HT1A receptors, read-out: 5-HT1A Receptor Affinity KI
[5] = displacement of 3H-paroxetine, male rat frontal cortical membranes, read-out: 5-HT Transporter Affinity KI

Row | SMILES | melting point | 5-HT1A Function (Imax), maximum inhibitory effect [1] | IC50 [1] | Ki [2] | Ki [3] | Ki [2, 4] | Ki [3, 5]
1 | Fc1ccc2c(C3=CCN(CC4COc5ccc6[nH]c(C(F)(F)F)nc6c5O4)CC3)c[nH]c2c1 (stereo not drawn) (as salt: fumarate) (hydrate or solvate) [Example 3, 8-[4-(6-Fluoro-1H-indol-3-yl)-3,6-dihydro-2H-pyridin-1-ylmethyl]-2-trifluoromethyl-7,8-dihydro-3H-6,9-dioxa-1,3-diaza-cyclopenta[a]naphthalene] | 215 to 220 °C | – | – | – | – | – | –
2 | Cc1nc2c3c(ccc2[nH]1)OCC(CN1CC=C(c2c[nH]c4ccccc24)CC1)O3 (stereo not drawn) (as salt: fumarate) (hydrate or solvate) [Example 4, 8-[4-(1H-Indol-3-yl)-3,6-dihydro-2H-pyridin-1-ylmethyl]-2-methyl-7,8-dihydro-3H-6,9-dioxa-1,3-diaza-cyclopenta[a]naphthalene] | 219 to 222 °C | – | – | – | – | – | –
3 | Fc1ccc2[nH]cc(C3=CCN(CC4COc5ccc6[nH]c(C(F)(F)F)nc6c5O4)CC3)c2c1 (stereo not drawn) (as salt: fumarate) [Example 1, 8-[4-(5-Fluoro-1H-indol-3-yl)-3,6-dihydro-2H-pyridin-1-ylmethyl]-2-trifluoromethyl-7,8-dihydro-3H-6,9-dioxa-1,3-diaza-cyclopenta[a]naphthalene] | 236 to 238 °C | – | – | – | – | – | –
4 | FC(F)(F)c1nc2c3c(ccc2[nH]1)OCC(CN1CC=C(c2c[nH]c4ccccc24)CC1)O3 (stereo not drawn) (as salt: fumarate) [Example 2, 8-[4-(1H-Indol-3-yl)-3,6-dihydro-2H-pyridin-1-ylmethyl]-2-trifluoromethyl-7,8-dihydro-3H-6,9-dioxa-1,3-diaza-cyclopenta[a]naphthalene] | 231 to 233 °C | – | – | – | – | – | –
5 | CCc1nc2c3c(ccc2[nH]1)OCC(CN1CC=C(c2c[nH]c4ccccc24)CC1)O3 (stereo not drawn) (as salt: fumarate) [Example 6, 8-[4-(1H-Indol-3-yl)-3,6-dihydro-2H-pyridin-1-ylmethyl]-2-ethyl-7,8-dihydro-3H-6,9-dioxa-1,3-diaza-cyclopenta[a]naphthalene] | 231 to 232 °C | – | – | – | – | – | –
6 | Fc1cccc2c(C3=CCN(CC4COc5ccc6[nH]c(C(F)(F)F)nc6c5O4)CC3)c[nH]c12 (stereo not drawn) (as salt: fumarate) [Example 7, 8-[4-(7-Fluoro-1H-indol-3-yl)-3,6-dihydro-2H-pyridin-1-ylmethyl]-2-trifluoromethyl-7,8-dihydro-3H-6,9-dioxa-1,3-diaza-cyclopenta[a]naphthalene] | 239 to 240 °C | – | – | – | – | – | –
7 | FC(F)(F)C(F)(F)c1nc2c3c(ccc2[nH]1)OCC(CN1CC=C(c2c[nH]c4ccccc24)CC1)O3 (stereo not drawn) (as salt: fumarate) [Example 8, 8-[4-(1H-Indol-3-yl)-3,6-dihydro-2H-pyridin-1-ylmethyl]-2-pentafluoroethyl-7,8-dihydro-3H-6,9-dioxa-1,3-diaza-cyclopenta[a]naphthalene] | 238 to 239 °C | – | – | – | – | – | –
8 | Fc1ccc2[nH]cc(C3=CCN(CC4COc5ccc6[nH]c(C(F)(F)F)nc6c5O4)CC3)c2c1 (stereo not drawn) [Example 1, 8-[4-(5-Fluoro-1H-indol-3-yl)-3,6-dihydro-2H-pyridin-1-ylmethyl]-2-trifluoromethyl-7,8-dihydro-3H-6,9-dioxa-1,3-diaza-cyclopenta[a]naphthalene] | – | (100) | 93.5 nM | 3.07 nM | 1.04 nM | – | –
9 | FC(F)(F)c1nc2c3c(ccc2[nH]1)OCC(CN1CC=C(c2c[nH]c4ccccc24)CC1)O3 (stereo not drawn) [Example 2, 8-[4-(1H-Indol-3-yl)-3,6-dihydro-2H-pyridin-1-ylmethyl]-2-trifluoromethyl-7,8-dihydro-3H-6,9-dioxa-1,3-diaza-cyclopenta[a]naphthalene] | – | (82.5) | 29 nM | 1.76 nM | 1.05 nM | – | –
10 | Fc1ccc2c(C3=CCN(CC4COc5ccc6[nH]c(C(F)(F)F)nc6c5O4)CC3)c[nH]c2c1 (stereo not drawn) [Example 3, 8-[4-(6-Fluoro-1H-indol-3-yl)-3,6-dihydro-2H-pyridin-1-ylmethyl]-2-trifluoromethyl-7,8-dihydro-3H-6,9-dioxa-1,3-diaza-cyclopenta[a]naphthalene] | – | (66.5) | 22 nM | 2.67 nM | 1.12 nM | – | –
11 | Cc1nc2c3c(ccc2[nH]1)OCC(CN1CC=C(c2c[nH]c4ccccc24)CC1)O3 (stereo not drawn) [Example 4, 8-[4-(1H-Indol-3-yl)-3,6-dihydro-2H-pyridin-1-ylmethyl]-2-methyl-7,8-dihydro-3H-6,9-dioxa-1,3-diaza-cyclopenta[a]naphthalene] | – | (100) | 10 nM | 1.58 nM | 0.41 nM | – | –
12 | Cc1nc2ccc3c(c2n1C)OC(CN1CC=C(c2c[nH]c4ccccc24)CC1)CO3 (stereo not drawn) [Example 5, 8-[4-(1H-Indol-3-yl)-3,6-dihydro-2H-pyridin-1-ylmethyl]-1,2-dimethyl-7,8-dihydro-3H-6,9-dioxa-1,3-diaza-cyclopenta[a]naphthalene] | – | (100) | 6520 nM | – | – | 52 nM | 2 nM
13 | CCc1nc2c3c(ccc2[nH]1)OCC(CN1CC=C(c2c[nH]c4ccccc24)CC1)O3 (stereo not drawn) [Example 6, 8-[4-(1H-Indol-3-yl)-3,6-dihydro-2H-pyridin-1-ylmethyl]-2-ethyl-7,8-dihydro-3H-6,9-dioxa-1,3-diaza-cyclopenta[a]naphthalene] | – | (35.0) | 36 nM | 1.34 nM | 0.42 nM | – | –
14 | Fc1cccc2c(C3=CCN(CC4COc5ccc6[nH]c(C(F)(F)F)nc6c5O4)CC3)c[nH]c12 (stereo not drawn) [Example 7, 8-[4-(7-Fluoro-1H-indol-3-yl)-3,6-dihydro-2H-pyridin-1-ylmethyl]-2-trifluoromethyl-7,8-dihydro-3H-6,9-dioxa-1,3-diaza-cyclopenta[a]naphthalene] | – | (89.1) | 27.4 nM | 0.81 nM | 0.69 nM | – | –
15 | FC(F)(F)C(F)(F)c1nc2c3c(ccc2[nH]1)OCC(CN1CC=C(c2c[nH]c4ccccc24)CC1)O3 (stereo not drawn) [Example 8, 8-[4-(1H-Indol-3-yl)-3,6-dihydro-2H-pyridin-1-ylmethyl]-2-pentafluoroethyl-7,8-dihydro-3H-6,9-dioxa-1,3-diaza-cyclopenta[a]naphthalene] | – | (91.1) | 43.6 nM | – | – | 1.88 nM | 1.25 nM
